Measured values as given in paper PMC5883364 (Malaria Journal, 2018).

Experiments:
[1] = test system: HepG2-A16 (human hepatoma) cells
Experimental: (§1) Cytotoxicity was assessed on the mammalian cell lines HepG2-A16 (human hepatoma) and V79 (Chinese hamster lung), using a MTT based assay, as previously described. […] V79 and HepG2 cell lines were incubated for 24 and 48 h, respectively (media changed at 24 h intervals). Absorbance was read at 570 nm on a multi-mode microplate reader (Triad, Dynex Technologies), to produce a log dose-dependence curve. The LD50 value for each compound was estimated by non-linear interpolation of the dose-dependence curve (GraphPad Software).

[2] = test system: V79 (Chinese hamster lung) cells
Experimental: as §1

[3] = test system: P. falciparum Dd2 (chloroquine-resistant, mefloquine-resistant); set-up: method as in Lobo et al, 2016; settings: ref Lobo et al, 2016, cited from earlier work
[4] = test system: P. falciparum 3D7 (chloroquine and mefloquine sensitive); set-up: method as in Lobo et al, 2016; settings: strain 3D7; ref Lobo et al, 2016; read-out: P. falciparum IC50 ± SD, 3D7; cited from earlier work
[5] = test system: P. falciparum 3D7 mature-stage parasites; settings: typical value, strain not stated; cited from earlier work
[6] = test system: P. falciparum IPC4912 (artemisinin-resistant, K13 I543T); assay: SYBR Green I assay, IC50, strain IPC4912; assay type: cell-based, Plasmodium falciparum; settings: Plasmodium falciparum, read-out: P. falciparum IC50 ± SD, IPC4912
Experimental: Staging and parasitaemia were determined by light microscopy of Giemsa-stained thin blood smears. Anti-malarial activity was determined using the SYBR Green I assay, as previously described. Briefly, early ring stage parasites (> 80% of rings) were challenged with a 1:3 serial dilution of each compound, in concentrations ranging from 10,000–0.169 nM. Fluorescence intensity was measured with a multi-mode microplate reader (Triad, Dynex Technologies), with excitation and emission wavelengths of 485 and 535 nm, respectively, and analysed by nonlinear regression using GraphPad Prism to determine IC50 values.

[7] = test system: P. falciparum IPC5202 ring-stage parasites; assay: Ring-stage survival assay (RSA), IPC5202; assay type: cell-based, Plasmodium falciparum; settings: Plasmodium falciparum, 6 h; read-out: Ring-stage survival rate (RSA), percentage of viable parasites, IPC5202
Experimental: Ring-stage survival assays (RSA) were carried out as described in [21], with modifications. Parasite cultures were synchronized once, with 5% sorbitol, and in the next reinvasion cycle, twice, with a 6 h interval. […] Then, plates were centrifuged and supernatant replaced by drug-free culture media. After additional incubation during 66 h for ring-stage, and 42 h for mature-stage, susceptibility was assessed microscopically on Giemsa-stained thin blood smears by estimating the percentage of viable parasites that developed into a second generation of rings or trophozoites.

[8] = test system: P. falciparum IPC5202 (artemisinin-resistant, K13 R539T); assay: SYBR Green I assay, IC50, strain IPC5202; assay type: cell-based, Plasmodium falciparum; settings: Plasmodium falciparum, read-out: P. falciparum IC50 ± SD, IPC5202, strain IPC5202
Experimental: Staging and parasitaemia were determined by light microscopy of Giemsa-stained thin blood smears. Anti-malarial activity was determined using the SYBR Green I assay, as previously described.

| Compound | Selectivity index LD50 (HepG2)/IC50 (3D7) ([1]; HepG2 vs 3D7) | Selectivity index LD50 (HepG2)/IC50 (Dd2) ([1]; HepG2 vs Dd2) | Selectivity index LD50 (V79)/IC50 (3D7) ([2]; V79 vs 3D7) | Selectivity index LD50 (V79)/IC50 (Dd2) ([2]; V79 vs Dd2) | Resistance Index RIa = IC50 (Dd2)/IC50 (3D7) ([3]; Dd2 vs 3D7) | IC50 ([3]; strain Dd2, read-out: P. falciparum IC50 ± SD, Dd2) | IC50 [4] | viable mature-stage parasites allowed [5] | IC50 [6] | LD50 HepG2 ([1]; human, 48 h) | LD50 V79 ([2]; Chinese hamster, 24 h) | viability at 0.7 µM [7] | IC50 [8] |
| --- | --- | --- | --- | --- | --- | --- | --- | --- | --- | --- | --- | --- | --- |
| O=C1CCC2(CC1)OOC1(O2)C2CC3CC(C2)CC1C3 (stereo not shown) [LC50] | 71428.6 | 42372.8 | 71428.6 | 42372.8 | 1.7 | 23.6 ± 8.4 nM | 14 ± 6.7 nM |  |  |  |  |  |  |
| C[C@H]1[C@@H](O)O[C@@H]2O[C@@]3(C)CC[C@H]4[C@H](C)CC[C@@H]1[C@@]24OO3 [DHA, dihydroartemisinin, reference compound] |  |  |  |  |  |  |  | ~1% | 3.7 ± 2 nM | 1.0 mM | > 1 mM | ≤ 25% | 6.2 ± 1.6 nM |
